Results reported in paper PMC9520775, “Everolimus pharmacokinetics and exposure-response relationship in Japanese patients with advanced breast cancer” (Frontiers in Pharmacology, 2022).
Where two headings read alike, the source gives them in different places.

Experiments:
[1] = system: patients with advanced or metastatic breast cancer; assay: Progression-free survival (Kaplan-Meier, log-rank); format: in vivo, human; settings: for PFS: single patient
Excerpt: This was a prospective, observational PK study. Patients with advanced or metastatic breast cancer who received everolimus between November 2015 and November 2018 at Kobe City Medical Center General Hospital were enrolled in this study. The main inclusion criteria included the following: age ≥20 years; Eastern Cooperative Oncology Group (ECOG) performance status (PS): 0 or 1; and adequate bone marrow, liver, and renal function. The main exclusion criteria were interstitial pneumonia or pulmonary fibrosis, HBsAg positive, and psychiatric or psychological symptoms that made it difficult to participate in the study. Every participant provided written informed consent. This study was conducted in accordance with the Declaration of Helsinki and approved by the Institutional Review Board, under Approval Number zn151103.
Statistical differences in everolimus trough concentrations, doses and body weights between patient cohorts were assessed using the Mann–Whitney test. Progression-free survival (PFS) was assessed using the Kaplan-Meier method and the log-rank test. All statistical analyses were performed using GraphPad Prism version 7.03 (San Diego, CA). p < 0.05 was considered statistically significant.

[2] = set-up: method as in de Wit et al. (2016); settings: ref de Wit et al. (2016), cited from earlier work
patients = settings: cited from earlier work
[3] = cited from earlier work
breast cancer patients = system: breast cancer patients; set-up: method as in Ito et al., 2015; settings: Japanese population in the BOLERO-2 study; ref Ito et al., 2015; cited from earlier work
[4] = set-up: method as in Miesner et al. (2016); settings: kidney cancer patient, 10 mg everolimus, concomitant clarithromycin 500 mg twice daily for 12 days, acute renal failure; ref Miesner et al. (2016); cited from earlier work
[5] = patients with breast, kidney and neuroendocrine cancer, ref Deppenweiler et al. (2017)

Structure (SMILES): CO[C@H]1C[C@@H]2CC[C@@H](C)[C@@](O)(O2)C(=O)C(=O)N2CCCC[C@H]2C(=O)O[C@H]([C@H](C)C[C@@H]2CC[C@@H](OCCO)[C@H](OC)C2)CC(=O)[C@H](C)/C=C(\C)[C@@H](O)[C@@H](OC)C(=O)[C@H](C)C[C@H](C)/C=C/C=C/C=C/1C [everolimus]
- PFS ([1]; case Figure 3A): 8.5 months
- PFS ([1]; case Figure 3B): 13.8 months
- trough concentration to which adjusting may significantly prolong PFS ([1]; discussion statement): 10 to 20 ng/mL
- trough concentration group with significantly longer PFS ([1]; groups <10 (n = 9), 10–20 (n = 6), >20 ng/ml (n = 3), log-rank p = 0.0078): 10 to 20 ng/mL
- number of patients with PFS more than 8.5 months ([1]; of 18 patients): 14
- PFS, range ([1]; study population, n = 18): 1.7–55.8 months
- median PFS ([1]; study population, n = 18, with exemestane): 13.7 months
- absorption rate constant (Ka) ([2]; fixed for all analyses): 0.643 h⁻¹
- clearance (CL), population prior ([2]; two-compartment model, patients with thyroid cancer): 20.3 L/h
- incidence of stomatitis (patients; Japanese breast cancer patients, ref BOLERO-2 study): 88%
- proportion of patients who required a second dose reduction to 2.5 mg daily (patients; clinical study in Spain (6/90), ref Pascual et al., 2017): 7%
- proportion of patients who required a dose reduction to 5 mg daily (patients; clinical study in Spain (43/90), ref Pascual et al., 2017): 48%
- incidence of stomatitis (patients; patients with breast cancer, ref Alexopoulos et al., 2022, Ruíz-Falcó Rojas et al., Tedesco-Silva et al.): 20%–50%
- incidence of stomatitis (patients; renal transplant or tuberous sclerosis complex, ref Alexopoulos et al., 2022, Ruíz-Falcó Rojas et al., Tedesco-Silva et al.): approximately 10%
- suggested target trough concentration ([3]; kidney transplant patients, calcineurin-inhibitor-free regimen, ref Shipkova et al., 2016): 6 to 10 ng/mL
- trough concentration associated with increased risk of progression [3, 5]: lower than 11.9 ng/ml
- trough concentration associated with increased risk of toxicity [3, 5]: higher than 26.3 ng/ml
- trough concentration threshold for increased risk of overall severe toxicity ([3]; review, ref Falkowski and Woillard (2019)): higher than 20 ng/ml
- increase of risk of toxicity ([3]; trough concentrations higher than 26.3 ng/ml, ref Deppenweiler et al. (2017)): 4 fold
- increase of risk of progression ([3]; trough concentrations lower than 11.9 ng/ml, ref Deppenweiler et al. (2017)): 3 fold
- suggested target trough concentration ([3]; tuberous sclerosis, ref Combes et al., 2018): 5 to 15 ng/mL
- median PFS (breast cancer patients): 8.5 months
- trough level of everolimus [4]: 110 ng/mL
